Reference: patent publication US9107891B2, “Method for alleviating fear memory” (NIPPON SUISAN KAISHA, LTD., priority 2011, dated 2015)

Key:
[1] = tested on: pyramidal cells in the basolateral nucleus of amygdala; assay: Patch-clamp in brain slices: depolarization-induced suppression of excitation (DSE); type: cell-based; set-up: unit of the concentration uncertain; details: both groups of mice
From the text: Patch-clamp recordings from pyramidal cells in the amygdala were taken in accordance with the methods described in Non-Patent Documents 21 and 22. […] The access resistance was frequently checked during recording and any cells that experienced substantial changes (±20%) in its value during recording were excluded from analysis.
Whole-cell patch recordings were taken from pyramidal cells in the basolateral nucleus of amygdala. A bipolar glass electrode filled with an artificial cerebrospinal fluid was placed in the vicinity of the cell to be recorded and an electric stimulus was applied to the slice. First, the evoked excitatory postsynaptic current (eEPSC) was recorded from neurons in the amygdala. Subsequently, the cell being recorded was depolarized for 10 seconds and, immediately thereafter, eEPSC was recorded again. The ratio of the amplitude of eEPSC after depolarization (Ipost) to that of EPSC before depolarization (Ipre) (Ipost/Ipre) was calculated, and was used to assess the degree of DSE. In addition, to confirm the cannabinoid receptor dependency of DSE, recording was conducted with a brain slice immersed in an artificial cerebrospinal fluid containing rimonabant (5 mM). […] Thus, DSE was recorded in a brain slice immersed in an artificial cerebrospinal fluid containing capsaicin (10 mM) and the resulting changes were also studied.

fear memory in mice = assay: Fear conditioning test (freezing time); type: in vivo; details: administered 30 minutes before fear conditioning, 5% krill oil diet 6 weeks
From the text: The present inventors evaluated the actions of food ingredients on fear memory by the “fear conditioning experiment” (J Neurosci 27 158-166, 2007) which is extensively used as an evaluation system for fear memory in mice.
A cubic experimental box made of acrylic resin having a bottom of 20 cm×20 cm and a height of 33 cm, with a conductive metallic grid being laid across the bottom, was used as a new environment for conditioning; each mouse was put into the experimental box and conditioned by applying electric shocks (0.8 mA, 2 s) from the bottom grid. Feeling an intense pain from each electric shock, a mouse memorizes that when placed in the new environment, it will suffer pain from electric shocks. The mice were then returned to the breeding cage where they had been kept before the conditioning.
On the next day (the second day of the behavioral experiment), each mouse was put again into the experimental box where it was given electric shocks on the previous day; even in the absence of applied electric shocks, it would be scared to cringe, a characteristic freezing behavior from fear. The degree of fear memory was assessed by the degree of the freezing behavior, namely, the freezing time during a 3-minute exposure to the experimental box. […]

`COc1cc(CNC(=O)CCCC/C=C/C(C)C)ccc1O` [capsaicin] was tested, and the “effect on DSE” value ([1]; brain slice in artificial cerebrospinal fluid containing capsaicin (10 (unit uncertain))) was “suppress DSE”.

`C=CCN1CC[C@]23c4c5ccc(O)c4O[C@H]2C(=O)CC[C@@]3(O)[C@H]1C5` [naloxone] was tested, and the “freezing time, naloxone-administered krill oil group vs solvent-administered krill group” value (fear memory in mice; Test Example 12, FIG. 13) was “no difference in freezing time”.

In the case of `Cc1c(C(=O)NN2CCCCC2)nn(-c2ccc(Cl)cc2Cl)c1-c1ccc(Cl)cc1` [rimonabant], the “freezing time, rimonabant-administered krill oil group vs solvent-administered control group” value (fear memory in mice; Test Example 11, FIG. 12) is reported as “No significant difference” and the “effect on DSE” value ([1]; brain slice in artificial cerebrospinal fluid containing rimonabant (5 (unit uncertain))) is reported as “suppressed DSE almost completely”.
